Laboratory results from PMC11992225, “Antibacterial compounds against non-growing and intracellular bacteria” (npj Antimicrobials and Resistance, 2025).
Values after ≈ are worked out from the molar mass of the structure shown. Like-named read-outs stand apart in the source and are kept apart here.

What was measured:
P. aeruginosa DSM1117 = test: MIC, standard microdilution assay, growing P. aeruginosa; assay type: cell-based, Pseudomonas aeruginosa; conditions: Pseudomonas aeruginosa, DSM1117, P. aeruginosa
Method in brief: (§1)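 MICs come from microdilution in CA-MHB/40 mM HEPES pH 7.4 for the UPEC, Pseudomonas and Staphylococcus strains, and in TSB for Shigella. UPEC also tested in LPM/30 mM MES pH 5.5.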

S. flexneri 5a M90T = test: MIC in tryptic soy broth, S. flexneri; assay type: cell-based, Shigella flexneri; conditions: Shigella flexneri, 5AM90T, read-out: MIC (μM) TSB
Method in brief: as §1

non-growing UPEC CFT073 = test: Dilution-regrowth assay (screen, hit validation, dose-response) on stationary-phase UPEC; assay type: cell-based, Escherichia coli; conditions: for Regrowth, OD600 at 6h or 8h after dilution into drug-free medium: average; for EC50: Escherichia coli, E. coli, pH 7.4, regrowth delay of non-growing bacteria, 1:4 CA-MHB, 24 h treatment, OD600 6 h after 2500-fold dilution, read-out: EC50
Method in brief: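 Regrowth (OD600 after 6 h, 37 °C) of diluted non-growing CFT073, following 24 h compound treatment of 24 h stationary cultures, defines activity relative to untreated control. Screen at 20 µM, validation at 20, 10, 5 µM (duplicates), dose–response in three biological replicates fitted by five-parameter logistic.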

[1] = tested on: non-growing P. aeruginosa DSM1117; test: Dilution-regrowth assay (OD600, start-growth-time) on stationary-phase P. aeruginosa; assay type: cell-based, Pseudomonas aeruginosa; conditions: P. aeruginosa; for Regrowth, OD600 at 6h or 8h after dilution into drug-free medium: average; for EC50: Pseudomonas aeruginosa, DSM1117, regrowth delay of non-growing bacteria, 1:4 CA-MHB pH 7.4, 24 h treatment, OD600 8 h after dilution, read-out: EC50
Method in brief: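 Start-growth-time was taken as the point where OD600, recorded every 20 min at 37 °C over about 20 h of regrowth, passed 0.12. Before that, non-growing cultures in HEPES-buffered 1:4 CA-MHB (pH 7.4) were exposed for 24 h, with compounds at 20 μM in preliminary runs.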

[2] = CA-MHB pH 7.4, read-out: MIC (μM) CA-MHB
[3] = E. coli in 1:4 CA-MHB (pH 7.4), concentration 1
[4] = E. coli in 1:4 CA-MHB (pH 7.4), concentration 2.5
[5] = E. coli in 1:4 CA-MHB (pH 7.4), concentration 5
[6] = E. coli in 1:4 CA-MHB (pH 7.4), concentration 10
[7] = E. coli in 1:4 CA-MHB (pH 7.4), concentration 30
[8] = E. coli in LPM (pH 5.5), concentration 1
[9] = E. coli in LPM (pH 5.5), concentration 2.5
[10] = E. coli in LPM (pH 5.5), concentration 5
[11] = E. coli in LPM (pH 5.5), concentration 10
[12] = E. coli in LPM (pH 5.5), concentration 30

COc1c(N2C[C@@H]3CCCN[C@@H]3C2)c(F)cc2c(=O)c(C(=O)O)cn(C3CC3)c12 [Moxifloxacin]
MIC (P. aeruginosa DSM1117; [2]): 8 µM (≈ 3.21 µg/mL) | MIC (S. flexneri 5a M90T): 0.0625 µM (≈ 0.0251 µg/mL) | Regrowth, OD600 at 6h or 8h after dilution into drug-free medium (non-growing UPEC CFT073; E. coli in 1:4 CA-MHB (pH 7.4), concentration 0.25): 0.565 | Regrowth, OD600 at 6h or 8h after dilution into drug-free medium (non-growing UPEC CFT073; E. coli in 1:4 CA-MHB (pH 7.4), concentration 0.5): 0.481 | Regrowth, OD600 at 6h or 8h after dilution into drug-free medium (non-growing UPEC CFT073; [3]): 0.120 | Regrowth, OD600 at 6h or 8h after dilution into drug-free medium (non-growing UPEC CFT073; [4]): 0.067 | Regrowth, OD600 at 6h or 8h after dilution into drug-free medium (non-growing UPEC CFT073; [5]): 0.066 | Regrowth, OD600 at 6h or 8h after dilution into drug-free medium (non-growing UPEC CFT073; [6]): 0.068 | Regrowth, OD600 at 6h or 8h after dilution into drug-free medium (non-growing UPEC CFT073; [7]): 0.065 | Regrowth, OD600 at 6h or 8h after dilution into drug-free medium (non-growing UPEC CFT073; E. coli in LPM (pH 5.5), concentration 0.25): 0.577 | Regrowth, OD600 at 6h or 8h after dilution into drug-free medium (non-growing UPEC CFT073; E. coli in LPM (pH 5.5), concentration 0.5): 0.563 | Regrowth, OD600 at 6h or 8h after dilution into drug-free medium (non-growing UPEC CFT073; [8]): 0.570 | Regrowth, OD600 at 6h or 8h after dilution into drug-free medium (non-growing UPEC CFT073; [9]): 0.577 | Regrowth, OD600 at 6h or 8h after dilution into drug-free medium (non-growing UPEC CFT073; [10]): 0.574 | Regrowth, OD600 at 6h or 8h after dilution into drug-free medium (non-growing UPEC CFT073; [11]): 0.567 | Regrowth, OD600 at 6h or 8h after dilution into drug-free medium (non-growing UPEC CFT073; [12]): 0.530 | EC50 (non-growing UPEC CFT073): 649 nM | Regrowth, OD600 at 6h or 8h after dilution into drug-free medium ([1]; concentration 0.1): 0.549 | Regrowth, OD600 at 6h or 8h after dilution into drug-free medium ([1]; concentration 0.5): 0.215 | Regrowth, OD600 at 6h or 8h after dilution into drug-free medium ([1]; concentration 2.5): 0.094 | Regrowth, OD600 at 6h or 8h after dilution into drug-free medium ([1]; concentration 10): 0.093 | EC50 [1]: 264 nM

Cc1oc(=O)oc1CN1CCN(c2cc3c(cc2F)c(=O)c(C(=O)O)c2n3C(C)S2)CC1 (stereo not drawn) [Prulifloxacin]
MIC (P. aeruginosa DSM1117; 1:4 diluted CA-MHB pH 7.4, read-out: MIC (μM) 1:4 CA-MHB): 1 µM (≈ 0.461 µg/mL) | MIC (P. aeruginosa DSM1117; [2]): 1 µM (≈ 0.461 µg/mL) | MIC (S. flexneri 5a M90T): 0.0312 µM (≈ 0.0144 µg/mL) | Regrowth, OD600 at 6h or 8h after dilution into drug-free medium (non-growing UPEC CFT073; [3]): 0.198 | Regrowth, OD600 at 6h or 8h after dilution into drug-free medium (non-growing UPEC CFT073; [4]): 0.109 | Regrowth, OD600 at 6h or 8h after dilution into drug-free medium (non-growing UPEC CFT073; [5]): 0.093 | Regrowth, OD600 at 6h or 8h after dilution into drug-free medium (non-growing UPEC CFT073; [6]): 0.094 | Regrowth, OD600 at 6h or 8h after dilution into drug-free medium (non-growing UPEC CFT073; [7]): 0.092 | Regrowth, OD600 at 6h or 8h after dilution into drug-free medium (non-growing UPEC CFT073; [8]): 0.586 | Regrowth, OD600 at 6h or 8h after dilution into drug-free medium (non-growing UPEC CFT073; [9]): 0.570 | Regrowth, OD600 at 6h or 8h after dilution into drug-free medium (non-growing UPEC CFT073; [10]): 0.549 | Regrowth, OD600 at 6h or 8h after dilution into drug-free medium (non-growing UPEC CFT073; [11]): 0.564 | Regrowth, OD600 at 6h or 8h after dilution into drug-free medium (non-growing UPEC CFT073; [12]): 0.416 | EC50 (non-growing UPEC CFT073): 571 nM | Regrowth, OD600 at 6h or 8h after dilution into drug-free medium ([1]; concentration 2.5): 0.094 | Regrowth, OD600 at 6h or 8h after dilution into drug-free medium ([1]; concentration 10): 0.095 | EC50 [1]: 97 nM
